Columns and labels:
full length (FL) LXRβ = biological target: T1, full length (FL) LXRβ (Homo sapiens, UniProt P55055, DUP175-175); test: LXR Gal4 reporter transient transfection assay (FL-M2H Gal4β); type: cell-based; conditions: HEK293 cells, full length LXRβ; read-out: FL-M2H Gal4β (EC50 range)
T1 construct: the full length (FL) proteins of LXRα (amino acids 1-447); NP005684; NP009052; expressed in transfected cells; host or cells: HEK293
T1 sequence (P55055 with tags, fused parts or gaps DUP175-175): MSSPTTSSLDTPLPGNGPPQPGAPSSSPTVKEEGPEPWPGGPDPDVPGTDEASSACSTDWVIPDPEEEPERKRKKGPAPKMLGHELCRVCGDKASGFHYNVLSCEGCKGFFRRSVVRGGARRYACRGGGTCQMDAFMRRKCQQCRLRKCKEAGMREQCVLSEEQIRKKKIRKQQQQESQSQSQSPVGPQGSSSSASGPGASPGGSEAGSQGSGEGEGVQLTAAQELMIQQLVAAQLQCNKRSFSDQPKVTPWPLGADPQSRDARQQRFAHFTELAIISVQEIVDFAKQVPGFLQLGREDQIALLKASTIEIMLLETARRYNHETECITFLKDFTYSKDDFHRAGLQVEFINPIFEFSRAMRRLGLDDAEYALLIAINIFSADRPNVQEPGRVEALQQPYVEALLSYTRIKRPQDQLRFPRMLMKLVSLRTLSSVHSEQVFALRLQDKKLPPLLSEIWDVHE
Procedure, shortened: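 Luminescence readout: Firefly luciferase driven by GAL4 response elements reports LXR–cofactor interaction, normalised against cotransfected Renilla luciferase. The system used HEK293 cells expressing LXR full length or ligand-binding domain fused to the NFkB activation domain, with SRC1 or NCoR domains on GAL4 DBD; compound exposure was 16 h.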

[1] = biological target: T2, LXRβ ligand-binding domain (Homo sapiens, UniProt P55055, DUP175-175); test: TR-FRETβ activity assay (NCoA3 coactivator peptide recruitment); type: biochemical; conditions: TR-FRET, 1 μM 24(S)-25-epoxycholesterol prestimulation; read-out: FRETβ (EC50 range)
T2 construct: amino acids 156-461; NP009052; made in house; host or cells: E. coli
T2 sequence (P55055 with tags, fused parts or gaps DUP175-175 limits assumed): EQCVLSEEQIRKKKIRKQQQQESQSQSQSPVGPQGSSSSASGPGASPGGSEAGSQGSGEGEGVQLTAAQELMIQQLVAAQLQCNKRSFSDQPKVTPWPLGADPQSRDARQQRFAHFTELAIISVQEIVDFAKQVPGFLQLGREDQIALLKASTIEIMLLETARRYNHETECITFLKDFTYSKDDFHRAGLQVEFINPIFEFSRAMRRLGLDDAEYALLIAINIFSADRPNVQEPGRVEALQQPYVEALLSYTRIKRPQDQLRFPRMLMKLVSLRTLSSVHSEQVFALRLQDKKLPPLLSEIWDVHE
Procedure, shortened: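 Inverse agonism assessed by loss of coactivator recruitment, read as TR-FRET 665/615 nm after 1 h equilibration at 4 °C, in triplicate. Ten-point titration from 50 μM to 0.002 μM against LXRβ LBD (76 nM, GST fusion) prestimulated with 1 μM 24(S)-25-epoxycholesterol, with 400 nM NCoA3 peptide, pH 6.8. Sulfonyl acetic acids kept as 20 mM DMSO stocks with 100 mM TFA.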

full length (FL) LXRα = biological target: T3, full length (FL) LXRα (Homo sapiens, UniProt Q13133); test: LXR Gal4 reporter transient transfection assay (FL-M2H Gal4α); type: cell-based; conditions: HEK293 cells, full length LXRα; read-out: FL-M2H Gal4α (EC50 range)
T3 construct: the full length (FL) proteins of LXRα (amino acids 1-447); NP005684; expressed in transfected cells; host or cells: HEK293
T3 sequence (Q13133 1-447): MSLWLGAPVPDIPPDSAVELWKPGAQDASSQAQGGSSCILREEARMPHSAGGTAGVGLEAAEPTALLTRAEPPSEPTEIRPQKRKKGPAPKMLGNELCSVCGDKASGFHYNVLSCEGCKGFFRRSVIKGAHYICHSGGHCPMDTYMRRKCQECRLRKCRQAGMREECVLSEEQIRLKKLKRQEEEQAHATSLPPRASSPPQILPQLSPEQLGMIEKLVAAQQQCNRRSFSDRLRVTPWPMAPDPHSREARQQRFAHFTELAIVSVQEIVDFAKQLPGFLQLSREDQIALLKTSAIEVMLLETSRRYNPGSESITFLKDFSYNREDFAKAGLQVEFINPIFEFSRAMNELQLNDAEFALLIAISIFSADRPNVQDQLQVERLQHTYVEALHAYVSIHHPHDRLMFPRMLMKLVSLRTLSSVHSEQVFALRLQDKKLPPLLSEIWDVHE
Method: The tested compounds were usually dissolved, tested and stored as 20 mM stock solutions in DMSO. Since sulfonyl acetic acid derivatives tend to decarboxylate under these conditions, these stock solutions were prepared, tested and stored as 20 mM DMSO stock solutions containing 100 mM trifluoroacetic Acid (5 equivalents). Sulfonyl acetic acid derivatives are shelf stable as solid at rt for long time as reported by Griesbrecht et al. (Synlett 2010:374) or Faucher et al. (J. Med. Chem. 2004; 47:18).
LXR Gal4 Reporter Transient Transfection Assays
LXRα and LXRβ activity status was determined via detection of interaction with coactivator and corepressor proteins in mammalian two-hybrid experiments (M2H). For this, via transient transfection the full length (FL) proteins of LXRα (amino acids 1-447; NP005684; SEQ ID NO:1) or LXRβ-(amino acids 1-461; NP009052; SEQ ID NO:2) or the ligand-binding domains (LBD) of LXRα (amino acids 155-447 SEQ ID NO:3) or LXRβ (amino acids 156-461; SEQ ID NO:4) were expressed from pCMV-AD (Stratagene) as fusions to the transcriptional activation domain of NFkB. As cofactors, domains of either the steroid receptor coactivator 1 (SRC1; amino acids 552-887; SEQ ID NO:5) or of the corepressor NCoR (amino acids 1906-2312; NP006302; SEQ ID NO:6) were expressed as fusions to the DNA binding domain of the yeast transcription factor GAL4 (from pCMV-BD; Stratagene). Interaction was monitored via activation of a coexpressed Firefly Luciferase Reporter gene under control of a promoter containing repetitive GAL4 response elements (vector pFRLuc; Stratagene). Transfection efficiency was controlled via cotransfection of constitutively active pRL-CMV Renila reniformis luciferase reporter (Promega). HEK293 cells were grown in minimum essential medium (MEM) with 2 mM L-glutamine and Earle's balanced salt solution supplemented with 8.3% fetal bovine serum, 0.1 mM non-essential amino acids, 1 mM sodium pyruvate, at 37° C. in 5% CO2. 3.5×10^4 cells/well were plated in 96-well cell culture plates in growth medium supplemented with 8.3% fetal bovine serum for 16-20 h to ˜90% confluency. For transfection, medium was taken off and LXR and cofactor expressing plasmids as well as the reporter plasmids are added in 30 μL OPTIMEM/well including polyethylene-imine (PEI) as vehicle. Typical amounts of plasmids transfected/well: pCMV-AD-LXR (5 ng), pCMV-BD-cofactor (5 ng), pFR-Luc (100 ng), pRL-CMV (0.5 ng). Compound stocks were prepared in DMSO, prediluted in MEM to a total volume of 120 μL, and added 4 h after addition of the transfection mixture (final vehicle concentration not exceeding 0.2%). Cells were incubated for additional 16 h, lysed for 10 min in 1× Passive Lysis Buffer (Promega) and Firefly and Renilla luciferase activities were measured sequentially in the same cell extract using buffers containing D-luciferine and coelenterazine, respectively. Measurements of luminescence were done in a BMG-luminometer.

SMILES | EC50 (full length (FL) LXRβ) [nM] | EC50 [1] [nM] | EC50 (full length (FL) LXRα) [nM]
Cc1ccc(S(=O)(=O)n2c(-c3cc(N4CC(C(=O)O)C4)ccc3Cl)c(-c3ccsc3C#N)c3cc(F)ccc32)cc1 [3/40] | < 100 | 1000 to 10000 | 100 to 1000
Cc1ccc(S(=O)(=O)n2c(-c3cc(N4CC(C(=O)O)C4)ccc3F)c(-c3ccsc3C#N)c3cc(F)ccc32)cc1 [3/41] | < 100 | 1000 to 10000 | < 100
Cc1ccc(S(=O)(=O)n2c(-c3cccc(N4CC(C(=O)O)C4)c3)c(-c3ccsc3C#N)c3cc(C#N)ccc32)cc1 [3/45] | 100 to 1000 | 1000 to 10000 | 100 to 1000
Cc1ccc(S(=O)(=O)n2c(-c3cccc(-c4ccc(C(=O)O)nc4)c3)c(-c3ccsc3C#N)c3cc(F)ccc32)cc1 [3/47] | < 100 | 100 to 1000 | < 100
Cc1ccc(S(=O)(=O)n2c(-c3cccc(-c4ccc(C(=O)O)c(Cl)c4)c3)c(-c3ccsc3C#N)c3cc(F)ccc32)cc1 [3/49] | < 100 | 100 to 1000 | < 100
Cc1ccc(S(=O)(=O)n2c(-c3cccc(N4CCC(C)(C(=O)O)CC4)c3)c(-c3ccsc3C#N)c3cc(F)ccc32)cc1 [3/50] | < 100 | 100 to 1000 | < 100
Cc1ccc(S(=O)(=O)n2c(-c3cccc(N4CC(C(=O)NC(C)(C)C(=O)O)C4)c3)c(-c3ccsc3C#N)c3cc(F)ccc32)cc1 [3/52] | 100 to 1000 | 100 to 1000 | 100 to 1000
COc1cc(F)cc2c(-c3ccsc3C#N)c(-c3cccc(-c4ccc(C(=O)O)cc4)c3)n(S(=O)(=O)c3ccc(C)cc3)c12 [3/53] | < 100 | < 100 | < 100
Cc1ccc(S(=O)(=O)n2c(-c3cccc(-c4ccc(C(=O)O)cc4)c3)c(-c3ccsc3C#N)c3cc(F)cc(O)c32)cc1 [3/54] | < 100 | 100 to 1000 | < 100
Cc1ccc(S(=O)(=O)n2c(-c3cccc(-c4ccc(C(C)(O)C(=O)O)cc4)c3)c(-c3ccsc3C#N)c3cc(F)ccc32)cc1 (stereo not drawn) [3/55] | < 100 | 100 to 1000 | < 100
O=C(O)c1ccc(-c2cccc(-c3c(-c4ccccc4C4COC4)c4cc(F)ccc4n3S(=O)(=O)c3ccc(Cl)cc3)c2)c(Cl)c1 [3/56] | < 100 | < 100 | < 100
N#Cc1sccc1-c1c(-c2cccc(-c3ccc(C(=O)O)cc3Cl)c2)n(S(=O)(=O)c2ccc(Cl)cc2)c2ccc(F)cc12 [3/57] | < 100 | 100 to 1000 | < 100
Cc1ccc(S(=O)(=O)n2c(-c3cccc(N4[C@@H]5CC[C@H]4C[C@@H](C(=O)O)C5)c3)c(-c3ccsc3C#N)c3cc(F)ccc32)cc1 [3/58] | < 100 | 1000 to 10000 | < 100
N#Cc1sccc1-c1c(-c2cccc(N3CCC(C(=O)O)CC3)c2)n(S(=O)(=O)c2ccc(C(F)F)cc2)c2ccc(F)cc12 [3/60] | < 100 | 100 to 1000 | < 100
O=C(O)c1ccc(-c2cccc(-c3c(-c4ccccc4C4(F)CNC4)c4cc(F)ccc4n3S(=O)(=O)c3ccc(C(F)F)cc3)c2)c(Cl)c1 [3/61] | 100 to 1000 | 100 to 1000 | 100 to 1000
CN1CC(F)(c2ccccc2-c2c(-c3cccc(-c4ccc(C(=O)O)cc4Cl)c3)n(S(=O)(=O)c3ccc(C(F)F)cc3)c3ccc(F)cc23)C1 [3/62] | < 100 | 100 to 1000 | 100 to 1000
O=C(O)c1ccc(-c2cccc(-c3c(-c4ccsc4C4COC4)c4cc(F)ccc4n3S(=O)(=O)c3ccc(C(F)F)cc3)c2)c(Cl)c1 [3/63] | < 100 | < 100 | < 100
Cc1ccc(S(=O)(=O)n2c(-c3cccc(C4CC5(CC(C(=O)O)C5)C4)c3)c(-c3ccsc3C#N)c3cc(F)ccc32)cc1 (stereo not drawn) [3/65] | < 100 | 100 to 1000 | < 100
CC1(C)CCN(S(=O)(=O)n2c(-c3cccc(-c4ccc(C(=O)O)cc4)c3)c(-c3ccsc3C#N)c3ccccc32)CC1 [3/66] | 100 to 1000 | 1000 to 10000 | 100 to 1000
N#Cc1cccc(C#N)c1-c1c(-c2cccc(N3CC(C(=O)O)C3)c2)n(S(=O)(=O)c2ccc(C(F)F)cc2)c2ccc(F)cc12 [3/67] | 100 to 1000 | 100 to 1000 | 100 to 1000
N#Cc1cccc(C#N)c1-c1c(-c2cccc(C3CC3C(=O)O)c2)n(S(=O)(=O)c2ccc(C(F)F)cc2)c2ccc(F)cc12 (stereo not drawn) [3/68] | < 100 | 100 to 1000 | < 100
O=C(O)c1ccc(-c2cccc(-c3c(-c4cccc5oncc45)c4cc(F)ccc4n3S(=O)(=O)c3ccc(C(F)F)cc3)c2)c(Cl)c1 [3/69] | 100 to 1000 | 100 to 1000 | 100 to 1000
N#Cc1cccc(C#N)c1-c1c(-c2cccc(-c3ccc(C(=O)O)cc3Cl)c2)n(S(=O)(=O)c2ccc(C(F)F)cc2)c2cnc(O)cc12 [3/70] | 100 to 1000 | 100 to 1000 | 100 to 1000
N#Cc1cccc(C#N)c1-c1c(-c2cccc(-c3c(F)cc(OCC(=O)O)cc3F)c2)n(S(=O)(=O)c2ccc(C(F)F)cc2)c2ccc(F)cc12 [3/71] | < 100 | < 100 | < 100

From patent US11618747B2, “LXR modulators with bicyclic core moiety” (OrsoBio, Inc., priority 2018, dated 2023)
